Experimental data published in patent US20250144067A1, “PERSONALIZED STARVATION THERAPY FOR CANCER” (Faeth Therapeutics, Inc., priority 2021, published 2025).
Where a name gives a salt, the structure may show the parent alone.

Columns and labels:
[1] = test system: NCI-H292 lung cancer cells; test: FDA drug screening, complete media vs cholesterol-free media without statin (TABLE 1); assay type: cell-based, human
[2] = test system: NCI-H292 lung cancer cells; test: FDA drug screening, complete media vs cholesterol-free media with simvastatin (TABLE 2); assay type: cell-based, human; settings: for Cholesterol-free media + simvastatin (0.04 μM) / Complete Media: NCI-H292 cells
[3] = Complete minus Cholesterol-free, >0 enhanced anti-cancer activity, about 0 neutral, <0 antagonist
[4] = NCI-H292 cells, cholesterol-free media without statin
[5] = FDA library drug in cholesterol-free media with simvastatin 0.04 μM
[6] = FDA library drug in complete media
[7] = complete media vs cholesterol-free media + simvastatin (0.04 μM), >0 enhanced anti-cancer activity, about 0 neutral, <0 antagonist
[8] = NCI-H292 cells in cholesterol-free media without statin
[9] = NCI-H292 cells in complete media
[10] = cholesterol-free media with simvastatin 0.04 μM, FDA drug library screen (TABLE 2)
[11] = complete media, FDA drug library screen (TABLE 2)
[12] = complete media minus cholesterol-free media + simvastatin (0.04 μM), >0 enhanced anti-cancer activity, about 0 neutral, <0 antagonist
[13] = Complete minus Cholesterol-free, […]
[14] = NCI-H292 cells, cholesterol-free media without statin, FDA drug library screen
[15] = NCI-H292 cells, complete media, FDA drug library screen
[16] = complete media minus cholesterol-free media + simvastatin, […]
[17] = complete vs cholesterol-free media, >0 enhanced anti-cancer activity, about 0 neutral, <0 antagonist
[18] = complete media minus cholesterol-free media + simvastatin, >0 enhanced anti-cancer activity, about 0 neutral, <0 antagonist
[19] = drug in cholesterol-free media with simvastatin 0.04 μM
[20] = FDA drug library screen, cholesterol-free media with simvastatin 0.04 μM
[21] = FDA drug library screen, complete media

In the case of `CCS(=O)(=O)N1CC(CC#N)(n2cc(-c3ncnc4[nH]ccc34)cn2)C1` [Baricitinib], the Difference [1, 3] is reported as −0.22, the Cholesterol-free [1, 4] is reported as 0.7863 and the Complete ([1]; NCI-H292 cells, complete media) is reported as 0.5701. For the same molecule, the “Cholesterol-free media + simvastatin (0.04 μM)” value [2, 5] was 1.286, the “Complete Media” value [2, 6] was 0.9674 and the Difference [2, 7] was −0.32.
In the case of `CCCCCCCCCCCCCCCCCCOCC(O)CO` (stereo not drawn) [Batilol], the Difference ([1]; Complete minus Cholesterol-free, greater than 0 enhanced anti-cancer activity, about 0 neutral, below 0 antagonists) is reported as −0.55, the Cholesterol-free [1, 8] is reported as 1.321 and the Complete [1, 9] is reported as 0.7704. The “Cholesterol-free media + simvastatin (0.04 μM)” value [2, 10] was 0.9215, the “Complete Media” value [2, 11] was 0.9293 and the Difference [2, 12] was 0.01.
`CCC(=O)OCC(=O)[C@@]1(OC(=O)CC)[C@@H](C)C[C@H]2[C@@H]3CCC4=CC(=O)C=C[C@]4(C)[C@@]3(Cl)[C@@H](O)C[C@@]21C` [Beclometasone dipropionate] gave a Difference ([1]; Complete minus Cholesterol-free, greater than 0 enhanced anti-cancer activity, about 0 neutral, below 0 antagonist) of −0.19, a Cholesterol-free ([1]; NCI-H292 cells, FDA drug library screen, cholesterol-free media without statin) of 1.005 and a Complete ([1]; NCI-H292 cells, FDA drug library screen, complete media) of 0.8203. For the same molecule, the “Cholesterol-free media + simvastatin (0.04 μM)” value [2, 5] was 1.133, the “Complete Media” value [2, 6] was 0.8544 and the Difference [2, 7] was −0.28.
In the case of `C[C@H]1C[C@H]2[C@@H]3CCC4=CC(=O)C=C[C@]4(C)[C@@]3(Cl)[C@@H](O)C[C@]2(C)[C@@]1(O)C(=O)CO` [Beclometasone], the Difference [1, 13] is reported as −0.04, the Cholesterol-free [1, 14] is reported as 1.244 and the Complete [1, 15] is reported as 1.205. The “Cholesterol-free media + simvastatin (0.04 μM)” value ([2]; cholesterol-free media with simvastatin 0.04 μM, […]) was 0.7122, the “Complete Media” value ([2]; complete media, […]) was 0.7656 and the Difference [2, 16] was 0.05.
`COc1nc2ccc(Br)cc2cc1[C@@H](c1ccccc1)[C@@](O)(CCN(C)C)c1cccc2ccccc12` [Bedaquiline] gave a Cholesterol-free [1, 14] of 0.6087, a Complete [1, 15] of 1.472 and a Difference [1, 17] of 0.86. For the same molecule, the “Cholesterol-free media + simvastatin (0.04 μM)” value ([2]; cholesterol-free media with simvastatin 0.04 μM, cell growth value in FDA drug screen) was 1.492, the “Complete Media” value ([2]; complete media, cell growth value in FDA drug screen) was 1.59 and the Difference [2, 18] was 0.10.
For `NC[C@H]1O[C@H](O[C@H]2[C@H](O)[C@@H](O[C@H]3O[C@H](CO)[C@@H](O)[C@H](N)[C@H]3O)[C@H](N)C[C@@H]2N)[C@H](N)[C@@H](O)[C@@H]1O` [Bekanamycin], the Cholesterol-free [1, 14] was 0.873, the Complete [1, 15] was 1.446 and the Difference [1, 17] was 0.57. For the same molecule, the “Cholesterol-free media + simvastatin (0.04 μM)” value [2, 19] was 1.456, the “Complete Media” value ([2]; drug in complete media) was 1.293 and the Difference [2, 7] was −0.16.
In the case of `O=C(/C=C/c1cccc(S(=O)(=O)Nc2ccccc2)c1)NO` [Belinostat], the Cholesterol-free [1, 14] is reported as 0.07179, the Complete [1, 15] is reported as 0.1605 and the Difference [1, 17] is reported as 0.09. The “Cholesterol-free media + simvastatin (0.04 μM)” value [2, 20] was 0.2409, the “Complete Media” value [2, 21] was 0.1471 and the Difference [2, 7] was −0.09.
`CC[C@@]1(O)C(=O)OCc2c1cc1n(c2=O)Cc2c-1nc1ccccc1c2CCNC(C)C` [Belotecan (hydrochloride)] showed a Difference [1, 3] of 0.00, a Cholesterol-free [1, 14] of 0.00566 and a Complete [1, 15] of 0.01027. For the same molecule, the “Cholesterol-free media + simvastatin (0.04 μM)” value [2, 10] was −0.0005237, the “Complete Media” value [2, 11] was 0.007701 and the Difference [2, 12] was 0.01.
In the case of `CCC1(C)CC(=O)NC(=O)C1` [Bemegride], the Difference [1, 13] is reported as −0.76, the Cholesterol-free [1, 8] is reported as 1.658 and the Complete [1, 9] is reported as 0.894. For the same molecule, the “Cholesterol-free media + simvastatin (0.04 μM)” value [2, 20] was 0.8627, the “Complete Media” value [2, 21] was 1.013 and the Difference [2, 16] was 0.15.
`CC(C)(CCCCCC(O)CCCCCC(C)(C)C(=O)O)C(=O)O` [Bempedoic acid] gave a Difference [1, 3] of −0.25, a Cholesterol-free [1, 4] of 1.343 and a Complete ([1]; NCI-H292 cells, complete media) of 1.094. The “Cholesterol-free media + simvastatin (0.04 μM)” value [2, 20] was 1.143, the “Complete Media” value [2, 21] was 1.281 and the Difference [2, 18] was 0.14.
In the case of `CCN(CC)CCOC(=O)C(O)(c1ccccc1)c1ccccc1` [Benactyzine hydrochloride], the Difference [1, 13] is reported as −0.51, the Cholesterol-free [1, 8] is reported as 1.39 and the Complete [1, 9] is reported as 0.878. For the same molecule, the “Cholesterol-free media + simvastatin (0.04 μM)” value [2, 19] was 1.159, the “Complete Media” value ([2]; drug in complete media) was 0.961 and the Difference ([2]; complete media vs cholesterol-free media + simvastatin (0.04 μM), […]) was −0.20.
`CCOC(=O)[C@H](CCc1ccccc1)N[C@H]1CCc2ccccc2N(CC(=O)O)C1=O` [Benazepril (hydrochloride)] gave a Cholesterol-free [1, 4] of 1.314, a Complete ([1]; NCI-H292 cells, complete media) of 0.8774 and a Difference ([1]; complete vs cholesterol-free media, greater than 0 enhanced anti-cancer activity, about 0 neutral, below 0 antagonists) of −0.44. The “Cholesterol-free media + simvastatin (0.04 μM)” value [2, 20] was 1.077, the “Complete Media” value [2, 21] was 0.9854 and the Difference [2, 7] was −0.09.
